Laboratory results: patent US20140206708A1, “COMPOSITION FOR OPHTHALMIC ADMINISTRATION” (Rigel Pharmaceuticals, Inc., priority 2013, published 2014)
Converted amounts (≈) assume the structure as drawn.

Assays:
Aqueous solubility = assay type: physicochemical
[1] = solution pH 8, stored at room temperature for approximately 16 months

solubility (Aqueous solubility; water (aqueous), room temperature)	Structure (SMILES)	compound I choline salt converted to compound II [1]	aqueous solubility compared with free acid form and compound II (Aqueous solubility)	solubility in water (Aqueous solubility; in water)
~0.9 µg/mL (≈ 2.11 µM)	C#CCOc1ccc(Nc2nc(Nc3ccc(C)c(S(N)(=O)=O)c3)ncc2F)cc1 [Compound II, N2-(3-aminosulfonyl-4-methylphenyl)-5-fluoro-N4-[4-(prop-2-ynyloxy)phenyl]-2,4-pyrimidinediamine]			
	C#CCOc1ccc(Nc2nc(Nc3ccc(C)c(S(=O)(=O)NC(=O)CC)c3)ncc2F)cc1.C[N+](C)(C)CCO [VII, 5-Fluoro-N2-[4-methyl-3-(N-propionylaminosulfonyl)phenyl]-N4-[4-(2-propynyloxy)phenyl]-2,4-pyrimidinediamine Choline Salt]	about 5%	significantly higher aqueous solubility than both its free acid form and compound II	about 9.1 mg/mL
